The test has as its target human NaV1.8 (Homo sapiens (Human), UniProt Q9Y5Y9). Description: Nav1.8 Qube automated patch-clamp assay. The format is cell-based. As to conditions: human NaV1.8 stably expressed in HEK 293 cells; automated 384-well patch-clamp; resting or inactivated state not specified. The method, boiled down:
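Human NaV1.8 in HEK293 cells, automated whole-cell patch clamp at room temperature: 1 Hz train of ten 20 ms pulses to 10 mV from −90 mV, repolarization to −67 mV. First- and tenth-pulse peak currents gave resting and inactivated-state IC50 values via Hill fits.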
Chain of human NaV1.8 (Q9Y5Y9 whole entry): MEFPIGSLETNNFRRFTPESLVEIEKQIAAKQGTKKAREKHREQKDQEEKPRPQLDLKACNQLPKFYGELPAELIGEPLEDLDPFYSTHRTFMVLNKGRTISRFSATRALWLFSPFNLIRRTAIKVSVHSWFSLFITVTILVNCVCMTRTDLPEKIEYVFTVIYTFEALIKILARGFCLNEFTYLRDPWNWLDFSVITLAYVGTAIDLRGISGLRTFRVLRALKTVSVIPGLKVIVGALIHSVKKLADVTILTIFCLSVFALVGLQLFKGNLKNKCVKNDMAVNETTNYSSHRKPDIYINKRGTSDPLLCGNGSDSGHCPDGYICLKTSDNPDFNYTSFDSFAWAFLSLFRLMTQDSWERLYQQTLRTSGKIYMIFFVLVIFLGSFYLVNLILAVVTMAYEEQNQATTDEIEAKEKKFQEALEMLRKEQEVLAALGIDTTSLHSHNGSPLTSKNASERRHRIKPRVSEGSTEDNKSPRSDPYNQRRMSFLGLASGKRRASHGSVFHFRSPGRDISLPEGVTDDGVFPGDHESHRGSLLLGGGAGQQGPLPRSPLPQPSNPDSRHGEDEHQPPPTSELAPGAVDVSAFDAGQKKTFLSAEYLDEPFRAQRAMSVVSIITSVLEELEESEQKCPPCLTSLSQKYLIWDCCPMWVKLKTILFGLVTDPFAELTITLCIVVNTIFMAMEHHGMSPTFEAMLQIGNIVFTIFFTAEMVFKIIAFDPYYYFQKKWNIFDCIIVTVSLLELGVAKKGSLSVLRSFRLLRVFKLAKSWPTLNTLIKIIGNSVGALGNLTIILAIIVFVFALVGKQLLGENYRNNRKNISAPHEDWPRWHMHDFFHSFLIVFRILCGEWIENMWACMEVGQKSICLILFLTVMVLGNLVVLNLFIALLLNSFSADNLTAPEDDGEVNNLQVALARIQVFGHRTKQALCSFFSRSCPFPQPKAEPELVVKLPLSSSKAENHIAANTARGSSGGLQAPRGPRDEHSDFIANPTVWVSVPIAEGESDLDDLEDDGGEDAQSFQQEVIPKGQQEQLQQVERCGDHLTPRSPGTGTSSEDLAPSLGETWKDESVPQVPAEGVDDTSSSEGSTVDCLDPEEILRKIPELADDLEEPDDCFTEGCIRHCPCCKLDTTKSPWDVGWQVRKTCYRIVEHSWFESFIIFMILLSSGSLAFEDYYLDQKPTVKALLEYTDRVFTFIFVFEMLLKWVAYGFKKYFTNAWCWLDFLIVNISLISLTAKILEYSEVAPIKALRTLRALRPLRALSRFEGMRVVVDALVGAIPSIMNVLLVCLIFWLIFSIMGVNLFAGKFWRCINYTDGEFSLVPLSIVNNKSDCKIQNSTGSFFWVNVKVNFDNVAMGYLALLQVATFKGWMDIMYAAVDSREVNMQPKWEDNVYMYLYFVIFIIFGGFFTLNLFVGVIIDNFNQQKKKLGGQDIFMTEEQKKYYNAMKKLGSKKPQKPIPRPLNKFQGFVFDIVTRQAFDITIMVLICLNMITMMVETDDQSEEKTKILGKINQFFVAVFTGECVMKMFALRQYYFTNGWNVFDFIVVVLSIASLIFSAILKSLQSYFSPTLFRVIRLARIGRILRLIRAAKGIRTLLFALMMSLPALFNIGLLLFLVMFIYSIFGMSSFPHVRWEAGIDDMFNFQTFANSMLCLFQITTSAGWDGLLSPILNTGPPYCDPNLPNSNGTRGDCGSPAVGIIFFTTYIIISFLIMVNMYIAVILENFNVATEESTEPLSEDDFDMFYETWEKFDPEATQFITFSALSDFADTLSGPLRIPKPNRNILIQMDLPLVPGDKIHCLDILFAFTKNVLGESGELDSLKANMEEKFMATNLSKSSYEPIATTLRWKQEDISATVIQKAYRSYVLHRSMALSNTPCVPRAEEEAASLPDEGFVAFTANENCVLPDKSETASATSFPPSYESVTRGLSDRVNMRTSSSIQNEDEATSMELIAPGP
Turning to `O=C1NC[C@@H](C(=O)NC(c2ccc(F)c(Cl)c2F)[C@H]2C[C@H](C(F)(F)F)C2)N1` (single isomer, unassigned) [Example 34A, (S)—N—((R or S)-(3-chloro-2,4-difluorophenyl)(trans-3-(trifluoromethyl)cyclobutyl)methyl)-2-oxoimidazolidine-4-carboxamide], inhibition was half-maximal at 3.8 nM (IC50).
The value for `O=C1NC[C@@H](C(=O)NC(c2ccc(F)c(Cl)c2)C2C3CN(CC(F)(F)F)CC32)N1` (single isomer, unassigned) [Example 77A, (4S)-N-((1(R or S))-(3-chloro-4-fluorophenyl)(3-(2,2,2-trifluoroethyl)-3-azabicyclo[3.1.0]hexan-6-yl)methyl)-2-oxoimidazolidine-4-carboxamide] was 26 nM; that for `O=C1NC[C@@H](C(=O)NC(c2ccc(Cl)cc2)c2ccc3c(c2)CC3(F)F)N1` (single isomer, unassigned) [Example 90, (S)-N-((R or S)-(4-chlorophenyl)(7,7-difluorobicyclo[4.2.0]octa-1(6),2,4-trien-3-yl)methyl)-2-oxoimidazolidine-4-carboxamide] was 3.8 nM.
Then `O=C1NC[C@@H](C(=O)NC(c2ccc(Cl)cc2)c2ccc(F)c(C(F)(F)F)c2)N1` (single isomer, unassigned) [Example 17B, (S)-N-((R or S)-(4-chloropehnyl)(4-fluoro-3-(trifluoro-methyl)phenyl)methyl)-2-oxoimidazolidine-4-carboxamide], with 7 nM; and `O=C1NC[C@@H](C(=O)NC(c2ccc(OCC(F)(F)F)nn2)c2ccc(F)c(Cl)c2F)N1` (single isomer, unassigned) [Example 50A, (4S)—N—((R or S)-(3-chloro-2,4-difluorophenyl)(6-(2,2,2-trifluoroethoxy)-pyridazin-3-yl)methyl)-2-oxoimidazolidine-4-carboxamide], with 45 nM; and `O=C1NC[C@@H](C(=O)NC(c2ccc(OC(F)(F)F)cc2)c2cccc(Cl)c2)N1` (single isomer, unassigned) [Example 9A, (4S)—N—((R or S)-(3-chlorophenyl)(4-(trifluoromethoxy)phenyl)methyl)-2-oxoimidazolidine-4-carboxamide], with 2 nM.
For `O=C1NC[C@@H](C(=O)NC(c2ccc(OC(F)(F)F)c(Cl)c2)c2ccc(OC(F)(F)F)cn2)N1` (single isomer, unassigned) [Example 39B, (S)—N—((R or S)-(3-chloro-4-(trifluoromethoxy)phenyl)(5-(trifluoromethoxy)pyridin-2-yl)methyl)-2-oxoimidazolidine-4-carboxamide], it took 2.5 nM to reach half-maximal inhibition (IC50).
With `O=C1NC[C@@H](C(=O)NC(c2ccc(F)c(Cl)c2)c2cc(C(F)(F)F)[nH]n2)N1` (single isomer, unassigned) [Example 4A, (S)—N—((R or S)-(3-chloro-4-fluorophenyl)(5-(trifluoromethyl)-1H-pyrazol-3-yl)methyl)-2-oxoimidazolidine-4-carboxamide], the midpoint of inhibition, the IC50, lay at 203 nM.
On to `O=C1NC[C@@H](C(=O)NC(c2ccc(F)c(Cl)c2)c2cc(C(F)(F)F)[nH]n2)N1` (single isomer, unassigned) [Example 4B, (S)—N—((R or S)-(3-chloro-4-fluorophenyl)(5-(trifluoromethyl)-1H-pyrazol-3-yl)methyl)-2-oxoimidazolidine-4-carboxamide], for which the IC50 (as a rule, the concentration needed to halve the response being measured) was 6.2 nM.
Then `O=C1NC[C@@H](C(=O)NC(c2cnc(C(F)(F)F)c(Cl)c2)c2ccc(Cl)c(C(F)F)n2)N1` (single isomer, unassigned) [Example 3A, (S)—N—((R or S)-(5-chloro-6-(difluoromethyl)pyridin-2-yl)(5-chloro-6-(trifluoromethyl)pyridin-3-yl)methyl)-2-oxoimidazolidine-4-carboxamide], with 9.7 nM.
